Legend:
[1] = Drug uptake in NOD/SCID mouse at 25 mg/kg, po measured after 0.5 to 6 hrs; type: ADME, organism-based; conditions: in vivo
[2] = Plasma concentration in NOD/SCID mouse at 25 mg/kg, po measured after 0.5 to 6 hrs; type: ADME, organism-based; conditions: in vivo
[3] = Volume of distribution at steady state in CB17 SCID mouse at 2 mg/kg, iv after 0.25 to 24 hrs by LC/MS/MS method; type: ADME, organism-based; conditions: in vivo, read-out: Vdss
[4] = Stability in human liver microsomes assessed as compound remaining at 1 uM incubated for 60 mins by LC/MS analysis; type: ADME, Microsome; conditions: read-out: Stability
[5] = Ratio of drug level in brain to plasma in CB17 SCID mouse at 10 mg/kg, po measured at 4 h; type: ADME, organism-based; conditions: brain and plasma, read-out: BPR
[6] = Toxicity in CB17 SCID mouse assessed as induction of adverse effect at 10 mg/kg, po; type: organism-based; conditions: in vivo
[7] = Cmax in CB17 SCID mouse at 10 mg/kg, po after 0.25 to 24 hrs by LC/MS/MS method; type: ADME, organism-based; design: dose 10 mg/kg, route oral; conditions: in vivo
[8] = AUCinfinity in CB17 SCID mouse at 10 mg/kg, po after 0.25 to 24 hrs by LC/MS/MS method; type: ADME, organism-based; design: dose 10 mg/kg, time infinity, route oral; conditions: in vivo
[9] = Stability in CD1 mouse liver microsomes assessed as compound remaining at 1 uM incubated for 60 mins by LC/MS analysis; type: ADME, Microsome; conditions: read-out: Stability
[10] = target: Voltage-gated inwardly rectifying potassium channel KCNH2 (Homo sapiens, UniProt Q12809); experiment: Inhibition of human ERG expressed in HEK293 cells after 5 mins by IonWorks barracuda patch clamp method; type: cell-based
[11] = Half life in CD1 mouse liver microsomes at 1 uM incubated for 60 mins by LC/MS analysis; type: ADME, Microsome
[12] = Half life in CB17 SCID mouse at 10 mg/kg, po after 0.25 to 24 hrs by LC/MS/MS method; type: ADME, organism-based; conditions: in vivo
[13] = Half life in human liver microsomes at 1 uM incubated for 60 mins by LC/MS analysis; type: ADME, Microsome
[14] = target: T1, TGF-beta receptor type-1 (Homo sapiens, UniProt P36897); experiment: Inhibition of recombinant human ALK5 expressed in HEK293 cells transfected with CAGA-luciferase and Renilla luciferase reporter after 24 hrs by dual luciferase reporter assay; type: cell-based
T1 sequence (P36897 whole entry): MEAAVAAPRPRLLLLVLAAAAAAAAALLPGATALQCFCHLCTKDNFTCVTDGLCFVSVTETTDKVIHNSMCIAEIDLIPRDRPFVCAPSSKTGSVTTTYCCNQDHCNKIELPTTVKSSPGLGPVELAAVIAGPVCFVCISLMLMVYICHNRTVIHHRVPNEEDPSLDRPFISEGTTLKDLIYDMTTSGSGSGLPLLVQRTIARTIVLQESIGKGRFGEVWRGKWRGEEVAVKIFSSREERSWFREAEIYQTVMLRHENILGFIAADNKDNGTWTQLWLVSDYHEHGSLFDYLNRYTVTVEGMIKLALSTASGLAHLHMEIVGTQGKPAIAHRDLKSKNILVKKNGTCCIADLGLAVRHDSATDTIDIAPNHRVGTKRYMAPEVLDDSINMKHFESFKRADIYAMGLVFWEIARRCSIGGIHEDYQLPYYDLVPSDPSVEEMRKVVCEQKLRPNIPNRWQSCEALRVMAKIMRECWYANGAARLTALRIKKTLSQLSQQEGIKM

[15] = target: T1, TGF-beta receptor type-1; experiment: Inhibition of human ALK5 using casein as substrate in presence of [gamma-33P]-ATP by radiometric hotspot assay; type: ADME
[16] = Oral bioavailability in CB17 SCID mouse at 10 mg/kg after 0.25 to 24 hrs by LC/MS/MS method; type: ADME, organism-based; conditions: in vivo
[17] = target: T2, Activin receptor type-1 (Homo sapiens, UniProt Q04771); experiment: Competitive displacement of PBI-6908 from nanoluciferase-fused ALK2 (unknown origin) expressed in HEK293 cells incubated for 2 hrs by NanoBRET NanoGlo substrate based NanoBRET assay; type: cell-based
T2 sequence (Q04771 whole entry): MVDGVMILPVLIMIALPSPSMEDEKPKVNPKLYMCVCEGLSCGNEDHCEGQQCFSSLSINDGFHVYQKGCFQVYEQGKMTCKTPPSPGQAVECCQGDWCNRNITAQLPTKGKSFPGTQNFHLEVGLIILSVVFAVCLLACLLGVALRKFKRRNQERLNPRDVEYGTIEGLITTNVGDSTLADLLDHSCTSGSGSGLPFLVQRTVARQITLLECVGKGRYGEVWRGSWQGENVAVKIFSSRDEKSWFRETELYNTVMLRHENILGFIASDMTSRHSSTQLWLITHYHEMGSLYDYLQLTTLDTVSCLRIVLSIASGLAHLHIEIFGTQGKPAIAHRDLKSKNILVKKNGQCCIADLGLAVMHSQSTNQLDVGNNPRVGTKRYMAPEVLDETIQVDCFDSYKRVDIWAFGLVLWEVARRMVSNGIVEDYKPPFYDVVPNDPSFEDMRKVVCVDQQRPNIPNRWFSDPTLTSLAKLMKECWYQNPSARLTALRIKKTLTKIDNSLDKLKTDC

[18] = target: T2, Activin receptor type-1; experiment: Inhibition of human ALK2 using casein as substrate in presence of [gamma-33P]-ATP by radiometric hotspot assay
[19] = target: T3, Activin receptor type-1B (Homo sapiens, UniProt P36896); experiment: Inhibition of human ALK4 using casein as substrate in presence of [gamma-33P]-ATP by radiometric hotspot assay; type: ADME
T3 sequence (P36896 whole entry): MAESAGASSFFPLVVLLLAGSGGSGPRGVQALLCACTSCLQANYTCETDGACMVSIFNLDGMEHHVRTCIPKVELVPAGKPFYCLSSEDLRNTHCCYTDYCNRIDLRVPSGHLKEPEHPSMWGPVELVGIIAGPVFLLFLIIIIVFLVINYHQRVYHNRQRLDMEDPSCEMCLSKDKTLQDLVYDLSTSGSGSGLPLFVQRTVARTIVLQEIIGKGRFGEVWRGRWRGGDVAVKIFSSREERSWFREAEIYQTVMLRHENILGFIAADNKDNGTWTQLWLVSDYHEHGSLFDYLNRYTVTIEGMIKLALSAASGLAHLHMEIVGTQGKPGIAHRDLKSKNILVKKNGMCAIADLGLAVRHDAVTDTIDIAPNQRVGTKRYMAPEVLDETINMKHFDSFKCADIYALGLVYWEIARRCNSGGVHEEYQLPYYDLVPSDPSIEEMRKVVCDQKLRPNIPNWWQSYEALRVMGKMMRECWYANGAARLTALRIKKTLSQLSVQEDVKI

[20] = Apparent permeability across apical to basolateral side in human Caco2 cells at 5 uM after 120 mins by LC-MS/MS analysis; conditions: Caco-2
[21] = Apparent permeability across basolateral to apical side in human Caco2 cells at 5 uM after 120 mins by LC-MS/MS analysis; type: ADME, cell-based; conditions: Caco-2
[22] = Toxicity in CB17 SCID mouse assessed as induction of adverse effect at 2 mg/kg, iv; type: organism-based; conditions: in vivo
[23] = Efflux ratio of apparent permeability across basolateral to apical over apical to basolateral side in human Caco2 cells at 5 uM incubated for 2 hrs by LC/MS/MS analysis; conditions: Caco-2
[24] = Clearance in CB17 SCID mouse at 2 mg/kg, iv after 0.25 to 24 hrs by LC/MS/MS method; type: ADME, organism-based; conditions: in vivo
[25] = Drug level in NOD/SCID mouse brain at 25 mg/kg, po measured at 2 hr post dose on day 14 by LC-MS/MS analysis; type: ADME, organism-based; conditions: read-out: Drug uptake
[26] = Oral bioavailability in BALB/c mouse at 5 mg/kg by LC-MS/MS analysis; type: ADME, organism-based; conditions: in vivo
[27] = Half life in BALB/c mouse at 5 mg/kg, po by LC-MS/MS analysis; type: ADME, organism-based; conditions: in vivo
[28] = Ratio of drug level in brain to plasma in NOD/SCID mouse at 25 mg/kg, po measured at 2 hr post dose on day 14 by LC-MS/MS analysis; type: ADME, organism-based; conditions: read-out: BPR

Voltage-gated inwardly rectifying potassium channel KCNH2, sequence (Q12809 whole entry): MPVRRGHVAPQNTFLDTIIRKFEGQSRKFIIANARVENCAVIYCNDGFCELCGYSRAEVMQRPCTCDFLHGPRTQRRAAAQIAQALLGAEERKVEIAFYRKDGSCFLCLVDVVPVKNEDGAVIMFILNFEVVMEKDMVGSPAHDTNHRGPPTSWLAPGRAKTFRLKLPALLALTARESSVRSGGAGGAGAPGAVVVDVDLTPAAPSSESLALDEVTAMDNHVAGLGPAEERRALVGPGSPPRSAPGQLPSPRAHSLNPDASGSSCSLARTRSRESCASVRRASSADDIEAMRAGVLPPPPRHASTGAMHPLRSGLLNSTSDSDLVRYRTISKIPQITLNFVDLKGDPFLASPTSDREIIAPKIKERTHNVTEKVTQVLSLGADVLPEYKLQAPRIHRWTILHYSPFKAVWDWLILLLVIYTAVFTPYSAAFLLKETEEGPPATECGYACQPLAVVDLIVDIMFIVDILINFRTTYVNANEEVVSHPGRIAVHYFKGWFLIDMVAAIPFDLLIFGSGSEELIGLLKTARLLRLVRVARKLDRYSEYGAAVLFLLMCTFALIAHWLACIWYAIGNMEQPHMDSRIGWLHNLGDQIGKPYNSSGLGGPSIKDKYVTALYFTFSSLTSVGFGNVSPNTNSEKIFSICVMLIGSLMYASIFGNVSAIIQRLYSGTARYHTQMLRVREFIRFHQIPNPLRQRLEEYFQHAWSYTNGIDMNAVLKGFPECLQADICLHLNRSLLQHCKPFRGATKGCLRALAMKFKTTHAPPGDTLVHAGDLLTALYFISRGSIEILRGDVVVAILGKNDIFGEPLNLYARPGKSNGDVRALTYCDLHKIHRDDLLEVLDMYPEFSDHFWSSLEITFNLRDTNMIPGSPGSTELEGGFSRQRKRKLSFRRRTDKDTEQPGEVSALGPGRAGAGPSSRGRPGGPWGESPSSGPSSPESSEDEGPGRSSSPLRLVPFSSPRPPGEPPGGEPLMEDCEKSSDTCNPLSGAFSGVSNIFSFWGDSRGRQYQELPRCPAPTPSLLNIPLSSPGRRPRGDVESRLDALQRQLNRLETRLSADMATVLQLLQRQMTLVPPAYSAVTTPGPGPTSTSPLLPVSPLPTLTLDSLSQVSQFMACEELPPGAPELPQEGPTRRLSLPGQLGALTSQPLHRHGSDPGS

In the case of `COc1cc(-c2cncc(-c3ccc(N4CCNCC4)cc3)c2C)cc(OC)c1OC.CS(=O)(=O)O`, the Drug uptake [1] is reported as “Active”.
`COc1cc(-c2cncc(-c3ccc(N4CCNCC4)cc3)c2C)cc(OC)c1OC` gave a concentration [2] of 9.11 µM.
Work on `COc1cc(-c2cncc(-c3ccc(C4=CCNCC4)cc3)c2C)cc(OC)c1OC` yielded a Vd [3] of 1.66 L/kg, a remaining at 1 h, 1 µM [4] of 68% and a Kp at 4 h [5] of 0.43. The Activity [6] was “Non-Toxic”, the Cmax [7] was 6.62 µM and the AUC(0-inf) [8] was 82.5 µM·h. The remaining at 1 h, 1 µM [9] was 73.9%, the IC50 [10] was 3.4 µM and the half-life at 1 µM [11] was > 60 min. The half-life [12] was 361 min, the half-life at 1 µM [13] was > 60 min and the IC50 [14] was 7.53 µM. For the same compound, the IC50 [15] was > 5 µM, the bioavailability [16] was 79% and the IC50 [17] was 47 nM. For the same compound, the IC50 [18] was 5 nM, the IC50 [19] was > 2000 nM and the Papp A→B at 2 h, 5 µM [20] was 2.9 ×10⁻⁶ cm/s. For the same compound, the Papp B→A at 2 h, 5 µM [21] was 3.9 ×10⁻⁶ cm/s, the Activity [22] was “Non-Toxic” and the efflux ratio at 2 h, 5 µM [23] was 1.3. The clearance [24] was 3.84 mL/min/kg.
In the case of `COc1cc(-c2cc(-c3ccc(N4CCNCC4)cc3)cnc2C)cc(OC)c1OC`, the concentration at 2 h [25] is reported as 10.9 µM, the bioavailability [26] is reported as 75% and the half-life [27] is reported as 235 min. The Kp at 2 h [28] was 0.8.

Reference: ChEMBL document CHEMBL4622974, “Leveraging an Open Science Drug Discovery Model to Develop CNS-Penetrant ALK2 Inhibitors for the Treatment of Diffuse Intrinsic Pontine Glioma” (J Med Chem, 2020)
